According to the supplement of paper PMC4862054:

How the values were obtained:
Test in all cases: normalised viability (% of control), CellTiter-Blue; higher = more viable cells (about 100 = DMSO control)
Details in all cases: incubation time: 72 h
BT-474 [1] = system: BT-474
Procedure: (§1)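 DSRT, CellTiter-Blue viability, 72 h incubation. Signal is normalised to DMSO and benzethonium chloride controls. Value is the normalised response at dose 3.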

BT-549 [2] = system: BT-549
Procedure: as §1

CAL-120 [3] = system: CAL-120
Procedure: as §1

CAL-148 = system: CAL-148
Procedure: as §1

CAL-51 [4] = system: CAL-51
Procedure: as §1

CAL-85-1 [5] = system: CAL-85-1
Procedure: as §1

DU-4475 [6] = system: DU-4475
Procedure: as §1

HCC1143 [7] = system: HCC1143
Procedure: as §1

HCC1599 = system: HCC1599
Procedure: as §1

HCC1937 = system: HCC1937
Procedure: as §1

HDQ-P1 [8] = system: HDQ-P1
Procedure: as §1

MDA-MB-231 = system: MDA-MB-231
Procedure: as §1

MDA-MB-436 = system: MDA-MB-436
Procedure: as §1

MDA-MB-453 [9] = system: MDA-MB-453
Procedure: as §1

MDA-MB-468 [10] = system: MDA-MB-468
Procedure: as §1

SK-BR-3 [11] = system: SK-BR-3
Procedure: as §1

BT-474 [12] = system: BT-474; remark: listed apart in the source
In short: (§2)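 The reported quantity is normalised viability at a single listed concentration of the series. Compound in 5 µl medium was pre-dispensed into 384-well plates and 20 µl of breast cancer cell suspension was added for 72 h. A 2 h, 37 °C CellTiter-Blue step (2.5 µl) preceded fluorescence reading at 560/590 nm, and plates were normalised to vehicle (100) and a positive kill control (0).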

BT-549 [13] = system: BT-549; remark: listed apart in the source
In short: as §2

CAL-120 [14] = system: CAL-120; remark: listed apart in the source
In short: as §2

CAL-51 [15] = system: CAL-51; remark: listed apart in the source
In short: as §2

CAL-85-1 [16] = system: CAL-85-1; remark: listed apart in the source
In short: as §2

DU-4475 [17] = system: DU-4475; remark: listed apart in the source
In short: as §2

HCC1143 [18] = system: HCC1143; remark: listed apart in the source
In short: as §2

HDQ-P1 [19] = system: HDQ-P1; remark: listed apart in the source
In short: as §2

Hs578T = system: Hs578T
In short: as §2

MDA-MB-453 [20] = system: MDA-MB-453; remark: listed apart in the source
In short: as §2

MDA-MB-468 [21] = system: MDA-MB-468; remark: listed apart in the source
In short: as §2

MFM-223 = system: MFM-223
In short: as §2

SK-BR-3 [22] = system: SK-BR-3; remark: listed apart in the source
In short: as §2

C[C@]1(c2nc3c(C(N)=O)cccc3[nH]2)CCCN1 [Veliparib]
Details | normalised viability [%]
BT-474 [1], 100 nM | 101
BT-474 [12], 10 nM | 101
BT-474 [12], 1000 nM | 103
BT-474 [12], 10000 nM | 104
BT-549 [2], 100 nM | 104
BT-549 [13], 10 nM | 95.3
BT-549 [13], 1000 nM | 112
BT-549 [13], 10000 nM | 81.7
CAL-51 [4], 10 nM | 113
CAL-51 [15], 3 nM | 114
CAL-51 [15], 30 nM | 105
CAL-51 [15], 100 nM | 106
CAL-85-1 [5], 10 nM | 90.8
CAL-85-1 [16], 3 nM | 87.9
CAL-85-1 [16], 30 nM | 84.9
CAL-85-1 [16], 100 nM | 84.7
CAL-120 [3], 100 nM | 74.8
CAL-120 [14], 10 nM | 81.7
CAL-120 [14], 1000 nM | 77
CAL-120 [14], 10000 nM | 70.2
CAL-148, 10 nM | 89.1
DU-4475 [6], 10 nM | 98.2
DU-4475 [17], 3 nM | 78.6
DU-4475 [17], 30 nM | 78.3
DU-4475 [17], 100 nM | 83.4
HCC1143 [7], 100 nM | 75.6
HCC1143 [18], 10 nM | 66.6
HCC1143 [18], 1000 nM | 76.4
HCC1143 [18], 10000 nM | 75.3
HCC1599, 100 nM | 116
HCC1937, 100 nM | 85.4
HDQ-P1 [8], 10 nM | 103
HDQ-P1 [19], 3 nM | 85.6
HDQ-P1 [19], 30 nM | 93.3
HDQ-P1 [19], 100 nM | 95.9
Hs578T, 10 nM | 101
Hs578T, 1000 nM | 99.9
Hs578T, 10000 nM | 100
MDA-MB-231, 100 nM | 92.3
MDA-MB-436, 100 nM | 84.1
MDA-MB-453 [9], 10 nM | 99.4
MDA-MB-453 [20], 3 nM | 109
MDA-MB-453 [20], 30 nM | 98.9
MDA-MB-453 [20], 100 nM | 94.4
MDA-MB-468 [10], 100 nM | 97.6
MDA-MB-468 [21], 10 nM | 113
MDA-MB-468 [21], 1000 nM | 105
MDA-MB-468 [21], 10000 nM | 98.9
MFM-223, 10 nM | 88.1
MFM-223, 1000 nM | 90.3
MFM-223, 10000 nM | 103
SK-BR-3 [11], 100 nM | 72.5
SK-BR-3 [22], 10 nM | 93.8
SK-BR-3 [22], 1000 nM | 93.6
SK-BR-3 [22], 10000 nM | 84.6

CC[C@]1(O)C[C@@H]2CN(CCc3c([nH]c4ccccc34)[C@@](C(=O)OC)(c3cc4c(cc3OC)N(C)[C@H]3[C@@](O)(C(=O)OC)[C@H](OC(C)=O)[C@]5(CC)C=CCN6CC[C@]43[C@@H]65)C2)C1 [Vinblastine]
Details | normalised viability [%]
BT-474 [1], 10 nM | 49.7
BT-474 [12], 1 nM | 51.8
BT-474 [12], 100 nM | 54.2
BT-474 [12], 1000 nM | 52.7
BT-549 [2], 10 nM | 26.3
BT-549 [13], 1 nM | 90.7
BT-549 [13], 100 nM | 19.4
BT-549 [13], 1000 nM | 17
CAL-51 [4], 1 nM | 114
CAL-51 [15], 0.3 nM | 108
CAL-51 [15], 3 nM | 106
CAL-51 [15], 10 nM | 96.4
CAL-85-1 [5], 1 nM | 101
CAL-85-1 [16], 0.3 nM | 89.9
CAL-85-1 [16], 3 nM | 94.9
CAL-85-1 [16], 10 nM | 48.3
CAL-120 [3], 10 nM | 19.1
CAL-120 [14], 1 nM | 35.4
CAL-120 [14], 100 nM | 18.5
CAL-120 [14], 1000 nM | 20.1
CAL-148, 1 nM | 107
DU-4475 [6], 1 nM | 102
DU-4475 [17], 0.3 nM | 105
DU-4475 [17], 3 nM | 96.5
DU-4475 [17], 10 nM | 82.9
HCC1143 [7], 10 nM | 40.6
HCC1143 [18], 1 nM | 77.3
HCC1143 [18], 100 nM | 42.7
HCC1143 [18], 1000 nM | 29.5
HCC1599, 10 nM | 107
HCC1937, 10 nM | 20.6
HDQ-P1 [8], 1 nM | 106
HDQ-P1 [19], 0.3 nM | 92.6
HDQ-P1 [19], 3 nM | 87.3
HDQ-P1 [19], 10 nM | 47.5
Hs578T, 1 nM | 70.4
Hs578T, 100 nM | 14.8
Hs578T, 1000 nM | 13.2
MDA-MB-231, 10 nM | 20.1
MDA-MB-436, 10 nM | 51.5
MDA-MB-453 [9], 1 nM | 98.4
MDA-MB-453 [20], 0.3 nM | 115
MDA-MB-453 [20], 3 nM | 99.8
MDA-MB-453 [20], 10 nM | 36.8
MDA-MB-468 [10], 10 nM | 39.3
MDA-MB-468 [21], 1 nM | 83.8
MDA-MB-468 [21], 100 nM | 36.6
MDA-MB-468 [21], 1000 nM | 41.8
MFM-223, 1 nM | 96.7
MFM-223, 100 nM | 43.9
MFM-223, 1000 nM | 24.9
SK-BR-3 [11], 10 nM | 13
SK-BR-3 [22], 1 nM | 27.6
SK-BR-3 [22], 100 nM | 16.5
SK-BR-3 [22], 1000 nM | 16.4

CS(=O)(=O)c1ccc(C(=O)Nc2ccc(Cl)c(-c3ccccn3)c2)c(Cl)c1 [Vismodegib]
Details | normalised viability [%]
BT-474 [1], 100 nM | 101
BT-474 [12], 10 nM | 102
BT-474 [12], 1000 nM | 118
BT-474 [12], 10000 nM | 77.5
BT-549 [2], 100 nM | 112
BT-549 [13], 10 nM | 102
BT-549 [13], 1000 nM | 112
BT-549 [13], 10000 nM | 79.2
CAL-51 [4], 10 nM | 103
CAL-51 [15], 3 nM | 114
CAL-51 [15], 30 nM | 104
CAL-51 [15], 100 nM | 106
CAL-85-1 [5], 10 nM | 114
CAL-85-1 [16], 3 nM | 97.9
CAL-85-1 [16], 30 nM | 93.7
CAL-85-1 [16], 100 nM | 109
CAL-120 [3], 100 nM | 87.7
CAL-120 [14], 10 nM | 89.7
CAL-120 [14], 1000 nM | 90.8
CAL-120 [14], 10000 nM | 85.6
CAL-148, 10 nM | 96.8
DU-4475 [6], 10 nM | 108
DU-4475 [17], 3 nM | 107
DU-4475 [17], 30 nM | 110
DU-4475 [17], 100 nM | 110
HCC1143 [7], 100 nM | 87.7
HCC1143 [18], 10 nM | 93.1
HCC1143 [18], 1000 nM | 93.6
HCC1143 [18], 10000 nM | 92.9
HCC1599, 100 nM | 86.2
HCC1937, 100 nM | 107
HDQ-P1 [8], 10 nM | 105
HDQ-P1 [19], 3 nM | 100
HDQ-P1 [19], 30 nM | 96.5
HDQ-P1 [19], 100 nM | 88.8
Hs578T, 10 nM | 106
Hs578T, 1000 nM | 108
Hs578T, 10000 nM | 93.3
MDA-MB-231, 100 nM | 94
MDA-MB-436, 100 nM | 85.6
MDA-MB-453 [9], 10 nM | 108
MDA-MB-453 [20], 3 nM | 106
MDA-MB-453 [20], 30 nM | 113
MDA-MB-453 [20], 100 nM | 104
MDA-MB-468 [10], 100 nM | 113
MDA-MB-468 [21], 10 nM | 104
MDA-MB-468 [21], 1000 nM | 103
MDA-MB-468 [21], 10000 nM | 88.7
MFM-223, 10 nM | 92.4
MFM-223, 1000 nM | 108
MFM-223, 10000 nM | 99.6
SK-BR-3 [11], 100 nM | 66.7
SK-BR-3 [22], 10 nM | 107
SK-BR-3 [22], 1000 nM | 105
SK-BR-3 [22], 10000 nM | 95.2
